We go through 33 compounds from patent US20240124444A1 (Celgene Corporation, priority 2020, published 2024).

The subject of this test is C. parvum strain UGA1. Put plainly: C. parvum growth inhibition assay (Nluc luminescence in HCT-8 cells). It counts as cell-based, Cryptosporidium parvum. As to conditions: Cryptosporidium parvum; for EC50: HCT-8, 48 h, C. parvum growth inhibition in HCT-8 cells, 48 hours, 6 concentrations 10-0.04 μM; for inhibition at 1 µM / inhibition at 10 µM: HCT-8; for inhibition at 1 µM: read-out: % inh @ 1 uM C. parvum; for inhibition at 10 µM: read-out: % inh @ 10 uM C. parvum.

[1] abbreviates: single point inhibition at 1 uM.
Setting [2] is: single point inhibition at 10 uM.
The mark [3] stands for this setting: single point inhibition @ 10 uM.

Read-outs that look alike come from different tables or passages of the source.

The EC50 is the concentration needed to bring the measured effect to its halfway point. The compound `Cn1cnc(-c2cc3cnc(NC4CCOCC4)cc3n2C)c1` [Example 348, 1-methyl-2-(1-methyl-1H-imidazol-4-yl)-N-(tetrahydro-2H-pyran-4-yl)-1H-pyrrolo[3,2-c]pyridin-6-amine] gave an EC50 greater than 1 µM.

On to `CCOc1nccc(-c2cc3cnc(NC(=O)c4cnn(C)c4)cc3[nH]2)n1` [Example 293, N-(2-(2-ethoxypyrimidin-4-yl)-1H-pyrrolo[3,2-c]pyridin-6-yl)-1-methyl-1H-pyrazole-4-carboxamide], for which, under setting [1], the inhibition at 1 µM fell in the range of 0 to 33%. Besides, the inhibition at 10 µM under setting [2] was 0 to 33%.

Compound `Cc1cc(-c2cc3cnc(NC4CCOCC4)cc3n2C)ccn1` [Example 59, 1-methyl-2-(2-methylpyridin-4-yl)-N-(tetrahydro-2H-pyran-4-yl)-1H-pyrrolo[3,2-c]pyridin-6-amine] had an EC50 greater than 1 µM.

For the compound `Cc1cc(-c2cc3cnc(NC(=O)C(C)O)cc3[nH]2)ccn1` (stereo in doubt) [Example 263, (R)-2-hydroxy-N-(2-(2-methylpyridin-4-yl)-1H-pyrrolo[3,2-c]pyridin-6-yl)propanamide], the inhibition at 1 µM under setting [1] was in the range of 0 to 33%. Moreover, the inhibition at 10 µM under setting [2] is 0 to 33%.

The compound `CC(C)C(=O)Nc1cc2[nH]c(-c3ccncc3)cc2cn1` [Example 78, N-(2-(pyridin-4-yl)-1H-pyrrolo[3,2-c]pyridin-6-yl)isobutyramide] registered an EC50 greater than 1 µM. For the same compound, where the note is “single point inhibition @ 1 uM”, the inhibition at 1 µM lay in the range of 33 to 66%. The inhibition at 10 µM under setting [3] was in the range of 67 to 100%.

`Cc1nccc(-c2cc3cnc(NC(=O)C4CCC4)cc3[nH]2)n1` [Example 99, N-(2-(2-methylpyrimidin-4-yl)-1H-pyrrolo[3,2-c]pyridin-6-yl)cyclobutanecarboxamide] gave an EC50 greater than 1 µM.

For the compound `Cn1cc(C(=O)Nc2cc3[nH]c(-c4ccnc(C#N)c4)cc3cn2)cn1` [Example 239, N-(2-(2-cyanopyridin-4-yl)-1H-pyrrolo[3,2-c]pyridin-6-yl)-1-methyl-1H-pyrazole-4-carboxamide], the inhibition at 1 µM under setting [1] fell in the range of 0 to 33%. For the same compound, the inhibition at 10 µM under setting [2] was 33 to 66%.

For the compound `Cn1c(-c2ccnc(NCC(F)(F)F)n2)cc2cnc(NC3CCCOC3)cc21` (stereo in doubt) [Example 379, (S)-1-methyl-N-(tetrahydro-2H-pyran-3-yl)-2-(2-(2,2,2-trifluoroethylamino)pyrimidin-4-yl)-1H-pyrrolo[3,2-c]pyridin-6-amine], the EC50 is greater than 1 µM.

Regarding `CCOc1nccc(-c2cc3cnc(NC(=O)CC4COC4)cc3[nH]2)n1` [Example 139, N-(2-(2-ethoxypyrimidin-4-yl)-1H-pyrrolo[3,2-c]pyridin-6-yl)-2-(oxetan-3-yl)acetamide], the inhibition at 1 µM (single point inhibition @ 1 uM) lay in the range of 0 to 33%. Moreover, under setting [3], the inhibition at 10 µM lay within 67 to 100%.

`O=S(=O)(Nc1cc2[nH]c(C(F)(F)F)cc2cn1)C1CC1` [Example 106, N-(2-(trifluoromethyl)-1H-pyrrolo[3,2-c]pyridin-6-yl)cyclopropanesulfonamide] gave a 50% effective concentration (EC50) greater than 1 µM.

Consider `Cc1cc(-c2cc3cnc(NC(=O)C45CC(C4)C5)cc3[nH]2)ccn1` [Example 298, N-(2-(2-methylpyridin-4-yl)-1H-pyrrolo[3,2-c]pyridin-6-yl)bicyclo[1.1.1]pentane-1-carboxamide], for which the inhibition at 1 µM under setting [1] was in the range of 0 to 33%. In addition, the inhibition at 10 µM under setting [2] fell in the range of 0 to 33%.

Consider `Cc1cc(-c2cc3cnc(N)cc3n2C)ncn1` [Example 125, 1-methyl-2-(6-methylpyrimidin-4-y)-1H-pyrrolo[3,2-c]pyridin-6-amine], for which the concentration giving a half-maximal response (EC50) is greater than 1 µM.

With `c1cncc(-c2cc3cnc(NC4CCOCC4)cc3[nH]2)c1` [Example 72, 2-(pyridin-3-yl)-N-(tetrahydro-2H-pyran-4-yl)-1H-pyrrolo[3,2-c]pyridin-6-amine], the half-maximal effective concentration (EC50) is greater than 1 µM. For the same compound, for the setting “single point inhibition @ 1 uM”, the inhibition at 1 µM lay within 0 to 33%. In addition, the inhibition at 10 µM under setting [3] is 0 to 33%.

For the compound `FC(F)(F)CNc1nccc(-c2cc3cnc(NC4CCOC4)cc3[nH]2)n1` (stereo in doubt) [Example 374, (S)-N-(tetrahydrofuran-3-yl)-2-(2-(2,2,2-trifluoroethylamino)pyrimidin-4-yl)-1H-pyrrolo[3,2-c]pyridin-6-amine], the EC50 was in the range of 0.5 to 1 µM.

As for `Cn1cc(C(=O)Nc2cc3[nH]c(-c4cnc(C#N)cn4)cc3cn2)cn1` [Example 303, N-(2-(5-cyanopyrazin-2-yl)-1H-pyrrolo[3,2-c]pyridin-6-yl)-1-methyl-1H-pyrazole-4-carboxamide], the inhibition at 1 µM under setting [1] is 0 to 33%. In addition, under setting [2], the inhibition at 10 µM lay in the range of 0 to 33%.

For `Cn1cc(C(=O)Nc2cc3[nH]c(-c4cnn(C)c4)cc3cn2)cn1` [Example 331, 1-methyl-N-(2-(1-methyl-1H-pyrazol-4-yl)-1H-pyrrolo[3,2-c]pyridin-6-yl)-1H-pyrazole-4-carboxamide], the inhibition at 1 µM under setting [1] is 0 to 33%. Also, under setting [2], the inhibition at 10 µM was 0 to 33%.

In the case of `CC(C)n1cc(C(=O)Nc2cc3[nH]c(-c4ccnc(NCC(F)(F)F)n4)cc3cn2)cn1` [Example 172, 1-isopropyl-N-(2-(2-(2,2,2-trifluoroethylamino)pyrimidin-4-yl)-1H-pyrrolo[3,2-c]pyridin-6-yl)-1H-pyrazole-4-carboxamide], the inhibition at 1 µM (single point inhibition @ 1 uM) lay within 67 to 100%. Moreover, under setting [3], the inhibition at 10 µM lay within 67 to 100%.

As for `Cn1cc(C(=O)Nc2cc3[nH]c(-c4cnc(C(F)(F)F)cn4)cc3cn2)cn1` [Example 304, 1-methyl-N-(2-(5-(trifluoromethyl)pyrazin-2-yl)-1H-pyrrolo[3,2-c]pyridin-6-yl)-1H-pyrazole-4-carboxamide], the inhibition at 1 µM under setting [1] was 33 to 66%. Moreover, the inhibition at 10 µM under setting [2] fell in the range of 0 to 33%.

Compound `CC(C)Nc1cc2c(cn1)cc(-c1ccnc(NCC(F)(F)F)n1)n2C` [Example 383, N-isopropyl-1-methyl-2-(2-(2,2,2-trifluoroethylamino)pyrimidin-4-yl)-1H-pyrrolo[3,2-c]pyridin-6-amine] displayed an EC50 greater than 1 µM.

Consider `CO[C@H]1CC[C@H](Nc2cc3[nH]c(-c4cccnc4)cc3cn2)CC1` [Example 274, N-((1r,4r)-4-methoxycyclohexyl)-2-(pyridin-3-yl)-1H-pyrrolo[3,2-c]pyridin-6-amine], for which, under setting [1], the inhibition at 1 µM lay within 0 to 33%. Moreover, under setting [2], the inhibition at 10 µM was in the range of 0 to 33%.

As to `Cn1cc(C(=O)Nc2cc3[nH]c(-c4ccnc(OCC5CCC5)n4)cc3cn2)cn1` [Example 313, N-(2-(2-(cyclobutylmethoxy)pyrimidin-4-yl)-1H-pyrrolo[3,2-c]pyridin-6-yl)-1-methyl-1H-pyrazole-4-carboxamide], the inhibition at 1 µM under setting [1] was in the range of 0 to 33%. For the same compound, under setting [2], the inhibition at 10 µM fell in the range of 0 to 33%.

For the compound `COc1cc(-c2cc3cnc(NC4CCOCC4)cc3n2C)ncn1` [Example 388, 2-(6-methoxypyrimidin-4-yl)-1-methyl-N-(tetrahydro-2H-pyran-4-yl)-1H-pyrrolo[3,2-c]pyridin-6-amine], the EC50 is greater than 1 µM.

Regarding `CN(CC(F)(F)F)c1cc(-c2cc3cnc(NC4CCOCC4)cc3[nH]2)ncn1` [Example 44, 2-(6-(Methyl(2,2,2-trifluoroethyl)amino)pyrimidin-4-yl)-N-(tetrahydro-2H-pyran-4-yl)-1H-pyrrolo[3,2-c]pyridin-6-amine], for the setting “single point inhibition @ 1 uM”, the inhibition at 1 µM lay within 0 to 33%. Further, under setting [3], the inhibition at 10 µM lay in the range of 67 to 100%.

In turn, `O=C(Nc1cc2[nH]c(-c3cnc(C4CC4)o3)cc2cn1)C1CC1` [Example 61, N-(2-(2-cyclopropyloxazol-5-yl)-1H-pyrrolo[3,2-c]pyridin-6-yl)cyclopropanecarboxamide] showed an EC50 greater than 1 µM.

Regarding `CO[C@H]1CC[C@@H](Nc2cc3[nH]c(-c4cccnc4)cc3cn2)CC1` [Example 228, N-((1s,4s)-4-methoxycyclohexyl)-2-(pyridin-3-yl)-1H-pyrrolo[3,2-c]pyridin-6-amine], the inhibition at 1 µM under setting [1] lay within 33 to 66%. For the same compound, the inhibition at 10 µM under setting [2] fell in the range of 33 to 66%.

With `CC(C)c1cc(-c2cc3cnc(NC4CCOCC4)cc3n2C)ncn1` [Example 395, 2-(6-isopropylpyrimidin-4-yl)-1-methyl-N-(tetrahydro-2H-pyran-4-yl)-1H-pyrrolo[3,2-c]pyridin-6-amine], the EC50 is greater than 1 µM.

`Cc1cc(-c2cc3cnc(N[C@H]4CCCOC4)cc3[nH]2)ccn1` [Example 22, (S)-2-(2-Methylpyridin-4-yl)-N-(tetrahydro-2H-pyran-3-yl)-1H-pyrrolo[3,2-c]pyridin-6-amine]: the EC50 is greater than 1 µM. In addition, the inhibition at 1 µM (single point inhibition @ 1 uM) lay in the range of 33 to 66%. Moreover, the inhibition at 10 µM under setting [3] fell in the range of 67 to 100%.

As for `Cn1cnc(-c2cc3cnc(NC(=O)C4CC4)cc3[nH]2)n1` [Example 65, N-(2-(1-methyl-1H-1,2,4-triazol-3-yl)-1H-pyrrolo[3,2-c]pyridin-6-yl)cyclopropanecarboxamide], the half-maximal effective concentration (EC50) was greater than 1 µM.

As to `COc1nccc(-c2cc3cnc(NC(=O)c4cc(C)n(C)n4)cc3[nH]2)n1` [Example 292, N-(2-(2-methoxypyrimidin-4-yl)-1H-pyrrolo[3,2-c]pyridin-6-yl)-1,5-dimethyl-1H-pyrazole-3-carboxamide], the inhibition at 1 µM under setting [1] fell in the range of 0 to 33%. For the same compound, the inhibition at 10 µM under setting [2] lay within 0 to 33%.

As to `Cc1cc(-c2cc3cnc(NC(=O)OC4CCCC4)cc3[nH]2)ccn1` [Example 170, cyclopentyl 2-(2-methylpyridin-4-yl)-1H-pyrrolo[3,2-c]pyridin-6-ylcarbamate], for the setting “single point inhibition @ 1 uM”, the inhibition at 1 µM was in the range of 0 to 33%. Further, the inhibition at 10 µM under setting [3] fell in the range of 67 to 100%.

Consider `CC(=O)Nc1cc2c(cn1)cc(-c1cc(C)ncn1)n2C` [Example 119, N-(1-methyl-2-(6-methylpyrimidin-4-yl)-1H-pyrrolo[3,2-c]pyridin-6-yl)acetamide], for which the EC50 is greater than 1 µM.

As to `O=C(Nc1cc2[nH]c(-c3ccncc3)cc2cn1)C1CCCCC1` [Example 217, N-(2-(pyridin-4-yl)-1H-pyrrolo[3,2-c]pyridin-6-yl)cyclohexanecarboxamide], the inhibition at 1 µM under setting [1] lay in the range of 0 to 33%. For the same compound, the inhibition at 10 µM under setting [2] fell in the range of 33 to 66%.

Compound `Cn1c(-c2cnco2)cc2cnc(NC(=O)C3CC3)cc21` [Example 74, N-(1-methyl-2-(oxazol-5-yl)-1H-pyrrolo[3,2-c]pyridin-6-y)cyclopropanecarboxamide] registered an EC50 greater than 1 µM.
